Measured values published in paper PMC11157491, “Novel Alaninamide Derivatives with Drug-like Potential for Development as Antiseizure and Antinociceptive Therapies—In Vitro and In Vivo Characterization” (ACS Chemical Neuroscience, 2024).

Key:
mice [1] = assay: PTZ-induced kindling; format: in vivo; conditions: for percentage of fully kindled mice: PTZ 40 mg/kg; for mean seizure severity score: 40 mg/kg
Description: The percentage of fully kindled mice in the control group was 77%. […] These slight differences were not statistically significant as compared to the PTZ control group.
Data are shown as means of seizure severity ± SEM (n = 13–15 animals). The statistical significance was evaluated by a mixed-effect model for repeated measures followed by Tukey’s post hoc test: *p < 0.05, **p < 0.01, ***p < 0.001, and ****p < 0.0001 as compared to the control group (GraphPad Prism 8).
The procedure was performed as described in detail in our earlier studies.[15],[65] […] The seizure severity was scored using the modified Racine’s scale. […] 24 h after the last PTZ injection, animals were subjected to the locomotor activity test, the elevated plus maze test, and the forced swim test according to the methods described in detail elsewhere. After behavioral tests, animals were sacrificed and the brains were rapidly removed. Hippocampi and cortices were dissected, frozen, and stored at −80 °C until the assay of determination of GABA and glutamate concentration.
The mean seizure severity scores were calculated for all experimental groups after each PTZ injection and analyzed using a mixed-effect model for repeated measures with Tukey’s post hoc test. Fisher’s exact probability test was used to compare the percentage of fully kindled mice.

NMDA = NMDA binding (antagonist radioligand); conditions: 100 μM, rat cerebral cortex
Description: (§1) Binding/functional studies were carried out commercially in Eurofins Laboratories (Poitiers, France) and Eurofins Panlabs Discovery Services Taiwan, Ltd. (New Taipei City, Taiwan) using testing procedures that were reported previously (for details, see Table S2).
Table S2. Radioligand binding and functional assays.
NMDA (antagonist radioligand) […]
(§2) Potassium channel (hERG) […]
(§3) Assays were performed commercially in Eurofins Laboratories ( Poitiers, France) or Eurofins Panlabs Discovery Services
(§4) Taiwan, Ltd. (New Taipei City, Taiwan).

hERG potassium channel = molecular target: T1, hERG potassium channel (Homo sapiens, UniProt Q12809); assay: hERG potassium channel binding; conditions: HEK-293 cells expressing human recombinant hERG, human recombinant HEK-293 cell, read-out: % inhibition of control specific binding
T1 construct: Eurofins (contract assay)
T1 sequence (Q12809 whole entry): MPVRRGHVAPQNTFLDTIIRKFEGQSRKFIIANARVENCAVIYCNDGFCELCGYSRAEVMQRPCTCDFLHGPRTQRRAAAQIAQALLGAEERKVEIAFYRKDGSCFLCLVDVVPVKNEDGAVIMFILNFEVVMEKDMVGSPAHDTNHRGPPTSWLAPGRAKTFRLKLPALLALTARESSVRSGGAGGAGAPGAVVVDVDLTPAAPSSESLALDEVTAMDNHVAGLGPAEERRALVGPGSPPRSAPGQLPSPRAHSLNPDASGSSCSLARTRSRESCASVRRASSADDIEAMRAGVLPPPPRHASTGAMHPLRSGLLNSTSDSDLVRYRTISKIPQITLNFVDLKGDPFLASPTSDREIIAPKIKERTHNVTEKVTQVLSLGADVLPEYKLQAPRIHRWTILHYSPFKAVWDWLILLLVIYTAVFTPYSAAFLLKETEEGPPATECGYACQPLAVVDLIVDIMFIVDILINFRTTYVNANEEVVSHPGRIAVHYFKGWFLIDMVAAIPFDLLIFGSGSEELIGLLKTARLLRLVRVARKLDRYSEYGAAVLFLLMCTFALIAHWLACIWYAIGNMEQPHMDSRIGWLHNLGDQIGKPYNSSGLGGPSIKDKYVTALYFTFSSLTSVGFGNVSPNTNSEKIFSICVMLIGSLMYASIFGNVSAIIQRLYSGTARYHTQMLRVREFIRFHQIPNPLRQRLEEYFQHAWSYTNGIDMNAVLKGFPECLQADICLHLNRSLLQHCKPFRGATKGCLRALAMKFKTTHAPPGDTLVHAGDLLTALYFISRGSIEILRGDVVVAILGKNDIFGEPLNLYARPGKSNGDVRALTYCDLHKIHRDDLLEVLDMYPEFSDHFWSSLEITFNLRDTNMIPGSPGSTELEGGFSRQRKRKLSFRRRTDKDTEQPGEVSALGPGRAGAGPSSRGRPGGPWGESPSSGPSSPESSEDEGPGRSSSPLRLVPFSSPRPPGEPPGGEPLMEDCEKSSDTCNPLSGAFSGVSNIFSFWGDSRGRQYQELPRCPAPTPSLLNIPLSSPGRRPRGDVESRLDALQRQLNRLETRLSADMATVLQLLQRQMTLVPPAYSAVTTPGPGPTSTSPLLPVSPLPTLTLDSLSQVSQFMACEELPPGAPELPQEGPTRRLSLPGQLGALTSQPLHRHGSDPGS
From the text: Moreover, we also evaluated its influence on the potassium channel (hERG), which is known to be one of the most critical “off-targets” responsible for the harmful proarrhythmic activity of drugs and drug candidates.[56] […] The latter result is particularly important, since it minimizes the risk of potential proarrhythmic activity of 28. Despite this positive result, more detailed off-target profiling is undoubtedly necessary in the next steps of preclinical development.
as §1
(§5) Table S2. Radioligand binding and functional assays. […]
as §2, §3, §4

[2] = molecular target: T2, Cav2.2 calcium ion channel (Rattus norvegicus, UniProt Q02294); assay: Cav2.2 binding (antagonist radioligand); conditions: rat cerebral cortex, read-out: % inhibition of control specific binding
T2 construct: rat cerebral cortex; tissue Eurofins (contract assay); host or cells: rat cerebral cortex
T2 sequence (Q02294 whole entry): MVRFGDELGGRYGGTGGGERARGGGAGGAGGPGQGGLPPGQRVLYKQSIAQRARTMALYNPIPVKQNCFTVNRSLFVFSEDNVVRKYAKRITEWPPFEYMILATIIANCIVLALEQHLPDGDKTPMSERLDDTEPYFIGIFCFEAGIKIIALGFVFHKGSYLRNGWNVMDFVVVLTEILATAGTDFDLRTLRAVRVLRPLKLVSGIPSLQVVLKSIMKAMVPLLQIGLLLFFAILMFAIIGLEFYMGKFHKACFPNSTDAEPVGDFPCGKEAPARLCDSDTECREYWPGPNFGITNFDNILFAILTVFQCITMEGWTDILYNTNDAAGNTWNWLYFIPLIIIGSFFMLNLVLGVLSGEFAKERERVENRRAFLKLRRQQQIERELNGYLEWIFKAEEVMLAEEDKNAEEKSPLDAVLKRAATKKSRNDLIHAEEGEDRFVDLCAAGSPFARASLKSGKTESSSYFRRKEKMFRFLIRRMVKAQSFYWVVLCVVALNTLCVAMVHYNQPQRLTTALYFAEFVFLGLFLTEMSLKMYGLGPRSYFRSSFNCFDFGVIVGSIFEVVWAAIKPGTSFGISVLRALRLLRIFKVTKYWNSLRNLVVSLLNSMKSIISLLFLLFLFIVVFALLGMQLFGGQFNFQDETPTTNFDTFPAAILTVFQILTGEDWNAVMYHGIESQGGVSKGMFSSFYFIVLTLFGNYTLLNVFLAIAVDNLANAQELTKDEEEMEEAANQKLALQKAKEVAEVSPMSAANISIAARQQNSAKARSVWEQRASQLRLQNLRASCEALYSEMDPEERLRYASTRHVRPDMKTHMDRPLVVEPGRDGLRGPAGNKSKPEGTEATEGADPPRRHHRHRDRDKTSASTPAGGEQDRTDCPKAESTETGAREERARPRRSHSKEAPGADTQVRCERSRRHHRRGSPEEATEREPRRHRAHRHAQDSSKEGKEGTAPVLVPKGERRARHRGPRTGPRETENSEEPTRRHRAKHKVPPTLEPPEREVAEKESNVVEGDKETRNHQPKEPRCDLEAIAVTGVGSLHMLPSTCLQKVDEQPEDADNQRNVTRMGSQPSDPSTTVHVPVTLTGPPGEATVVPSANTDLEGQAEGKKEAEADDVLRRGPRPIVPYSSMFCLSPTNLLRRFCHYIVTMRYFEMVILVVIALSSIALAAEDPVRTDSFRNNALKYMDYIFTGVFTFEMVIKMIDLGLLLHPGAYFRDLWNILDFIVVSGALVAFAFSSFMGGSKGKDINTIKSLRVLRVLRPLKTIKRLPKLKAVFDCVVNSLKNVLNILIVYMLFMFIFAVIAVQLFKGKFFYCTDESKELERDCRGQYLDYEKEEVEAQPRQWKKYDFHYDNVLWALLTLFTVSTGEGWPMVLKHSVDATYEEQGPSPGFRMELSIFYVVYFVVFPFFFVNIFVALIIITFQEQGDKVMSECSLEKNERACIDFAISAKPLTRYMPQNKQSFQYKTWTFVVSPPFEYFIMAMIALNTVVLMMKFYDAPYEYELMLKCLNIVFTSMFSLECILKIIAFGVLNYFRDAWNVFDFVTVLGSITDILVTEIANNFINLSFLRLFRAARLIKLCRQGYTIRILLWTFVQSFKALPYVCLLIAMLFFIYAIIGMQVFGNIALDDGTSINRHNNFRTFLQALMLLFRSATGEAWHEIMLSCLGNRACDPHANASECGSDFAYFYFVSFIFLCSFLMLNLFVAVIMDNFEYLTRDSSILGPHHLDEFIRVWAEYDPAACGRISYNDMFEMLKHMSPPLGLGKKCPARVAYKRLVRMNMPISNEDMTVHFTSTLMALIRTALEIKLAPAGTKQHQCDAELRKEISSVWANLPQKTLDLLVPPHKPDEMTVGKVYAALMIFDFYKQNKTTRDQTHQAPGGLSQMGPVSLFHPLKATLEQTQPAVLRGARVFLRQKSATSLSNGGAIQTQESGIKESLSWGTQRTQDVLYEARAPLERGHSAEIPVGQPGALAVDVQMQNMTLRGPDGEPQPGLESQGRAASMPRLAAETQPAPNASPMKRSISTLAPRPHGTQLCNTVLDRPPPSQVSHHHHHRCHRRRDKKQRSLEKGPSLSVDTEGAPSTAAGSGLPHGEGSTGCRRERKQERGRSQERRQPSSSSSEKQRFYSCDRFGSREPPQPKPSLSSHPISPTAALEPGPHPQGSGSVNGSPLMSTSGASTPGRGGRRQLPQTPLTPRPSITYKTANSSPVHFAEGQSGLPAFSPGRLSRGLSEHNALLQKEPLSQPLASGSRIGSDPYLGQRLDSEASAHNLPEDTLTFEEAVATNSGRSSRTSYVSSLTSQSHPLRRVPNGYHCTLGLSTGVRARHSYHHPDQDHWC
T2 sequence (P54287 whole entry partner): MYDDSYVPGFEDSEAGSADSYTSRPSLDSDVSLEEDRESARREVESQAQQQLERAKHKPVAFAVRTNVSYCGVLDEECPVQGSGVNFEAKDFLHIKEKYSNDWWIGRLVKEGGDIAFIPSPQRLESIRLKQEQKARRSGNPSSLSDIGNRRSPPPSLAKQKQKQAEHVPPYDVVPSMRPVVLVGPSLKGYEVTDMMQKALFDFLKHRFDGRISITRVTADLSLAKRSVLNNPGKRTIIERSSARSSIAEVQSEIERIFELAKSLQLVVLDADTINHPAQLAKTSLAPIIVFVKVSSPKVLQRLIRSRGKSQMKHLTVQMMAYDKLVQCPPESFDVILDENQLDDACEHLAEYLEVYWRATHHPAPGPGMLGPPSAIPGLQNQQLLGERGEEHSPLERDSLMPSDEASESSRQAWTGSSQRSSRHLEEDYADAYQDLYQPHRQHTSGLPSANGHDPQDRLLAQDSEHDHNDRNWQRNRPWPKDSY
T2 sequence (P54290 25-944 partner limits assumed): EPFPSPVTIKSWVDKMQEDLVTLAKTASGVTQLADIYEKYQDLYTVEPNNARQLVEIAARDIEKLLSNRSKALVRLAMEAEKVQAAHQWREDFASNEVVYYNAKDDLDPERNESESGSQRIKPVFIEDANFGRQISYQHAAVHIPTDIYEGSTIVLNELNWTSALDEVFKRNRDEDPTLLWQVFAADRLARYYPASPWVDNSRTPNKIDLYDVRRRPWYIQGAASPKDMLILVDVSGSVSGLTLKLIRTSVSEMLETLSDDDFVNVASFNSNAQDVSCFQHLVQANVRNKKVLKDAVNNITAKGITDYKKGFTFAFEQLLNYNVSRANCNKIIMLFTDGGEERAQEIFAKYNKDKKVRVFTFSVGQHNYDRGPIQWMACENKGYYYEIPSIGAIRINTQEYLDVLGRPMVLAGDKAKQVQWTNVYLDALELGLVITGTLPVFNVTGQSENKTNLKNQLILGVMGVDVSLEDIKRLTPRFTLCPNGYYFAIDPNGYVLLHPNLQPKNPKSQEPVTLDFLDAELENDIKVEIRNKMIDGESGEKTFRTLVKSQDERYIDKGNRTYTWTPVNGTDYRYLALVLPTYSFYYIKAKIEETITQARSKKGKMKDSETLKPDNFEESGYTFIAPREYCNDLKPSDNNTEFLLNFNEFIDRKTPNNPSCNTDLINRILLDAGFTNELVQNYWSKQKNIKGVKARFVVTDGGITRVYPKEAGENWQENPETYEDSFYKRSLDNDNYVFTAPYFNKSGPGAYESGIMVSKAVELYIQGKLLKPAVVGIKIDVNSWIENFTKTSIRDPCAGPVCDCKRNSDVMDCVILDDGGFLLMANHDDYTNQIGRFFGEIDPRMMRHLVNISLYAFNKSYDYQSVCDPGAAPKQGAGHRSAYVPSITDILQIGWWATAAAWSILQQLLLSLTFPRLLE
T2 sequence (P54290 945-1091 partner limits assumed): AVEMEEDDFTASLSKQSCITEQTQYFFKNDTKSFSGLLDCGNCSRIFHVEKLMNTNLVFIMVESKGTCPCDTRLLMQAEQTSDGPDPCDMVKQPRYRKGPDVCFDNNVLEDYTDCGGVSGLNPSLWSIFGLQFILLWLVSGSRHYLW
Description: as §1, §5
Cav2.2 calcium ion channel (antagonist radioligand) […]
as §2, §3, §4

mice [3] = assay: Capsaicin-induced pain; format: in vivo; conditions: Mus musculus, ip, 30 min before capsaicin
Description: The experimental groups consisted of 10 adult male Albino Swiss mice (CD-1, 18–25 g). Each animal was tested only once. Immediately after the assay, the animals were sacrificed by cervical dislocation. Behavioral measurements were observed by trained observers. The in vivo antinociceptive assays were in accordance with Polish regulations and the European Union Directive of 22 Sept 2010 (2010/63/EU). All procedures were carried out according to the rules of the International Council on Laboratory Animal Science (ICLAS) and were approved by the Local Ethics Committee in Cracow, Poland (104/2015, 279/2019, and 614/2022). The tested substances were suspended in a 1% aqueous solution of Tween 80 and were injected i.p. 30 min prior to the test. […] The in vivo procedure for the model of capsaicin-induced nociception was previously reported;[67] the animals were pretreated with vehicle (10 mL/kg, negative control), and the dose–response of investigated compounds was evaluated at 12.5, 25, and 50 mg/kg.
Data are presented as means ± standard error of the mean (SEM). […] Statistically significant differences between groups were calculated using one-way analysis of variance (ANOVA) and the post hoc Dunnett’s multiple comparison test or two-way analysis of variance (ANOVA). […]

mice [4] = assay: Oxaliplatin (OXPT)-induced peripheral neuropathy, von Frey test; format: in vivo
Description: The method is based on measuring the mean force that caused the paw withdrawal reaction, i.e., pain threshold. […] In the group treated with 28 at a dose of 25 mg/kg (Figure 6C), the initial value of 5.84 ± 0.43 (baseline) was decreased to the value of 2.78 ± 0.34 (47.6% of the baseline) and 3.39 ± 0.36 (58.0% of the baseline) in the early and late phases, respectively. […] In the group treated with the test compound at a dose of 75 mg/kg, the initial value of 6.17 ± 0.56 decreased to the values of 2.93 ± 0.45 (47.5% of the baseline) and 3.61 ± 0.28 (58.5% of the baseline) in the early and late phases, respectively.
(§6) The experimental groups consisted of 10 adult male Albino Swiss mice (CD-1, 18–25 g). Each animal was tested only once. Immediately after the assay, the animals were sacrificed by cervical dislocation. Behavioral measurements were observed by trained observers. The in vivo antinociceptive assays were in accordance with Polish regulations and the European Union Directive of 22 Sept 2010 (2010/63/EU). All procedures were carried out according to the rules of the International Council on Laboratory Animal Science (ICLAS) and were approved by the Local Ethics Committee in Cracow, Poland (104/2015, 279/2019, and 614/2022). The tested substances were suspended in a 1% aqueous solution of Tween 80 and were injected i.p. 30 min prior to the test. Control group animals (negative control) were administered with an appropriate amount of vehicle (Tween 80, 1% aqueous solution, i.p.) 30 min prior to the test. […] Before formalin application, different groups of animals were injected i.p. with vehicle (10 mL/kg, negative control). The in vivo procedure for the model of capsaicin-induced nociception was previously reported;[67] the animals were pretreated with vehicle (10 mL/kg, negative control), and the dose–response of investigated compounds was evaluated at 12.5, 25, and 50 mg/kg.
(§7) Data are presented as means ± standard error of the mean (SEM). GraphPad Prism Software (v.5) was used to analyze the vast majority of data. Statistically significant differences between groups were calculated using one-way analysis of variance (ANOVA) and the post hoc Dunnett’s multiple comparison test or two-way analysis of variance (ANOVA). The criterion for significance was set at p < 0.05. The log-probit method was applied to statistically determine the ED50 values with 95% confidence limits.

mice [5] = assay: Streptozotocin (STZ)-induced peripheral neuropathy, von Frey test; format: in vivo; conditions: 21 days after STZ
Description: In the first group, the initial value of 6.08 ± 0.29 (baseline) decreased to the value of 4.30 ± 0.21 (70.7% of the baseline). […] In the second group, the initial value of 6.08 ± 0.29 (baseline) decreased to the value of 5.02 ± 0.27 (82.6% of the baseline). The administration of 28 at a dose of 25 mg/kg elevated the pain threshold to the value of 7.69 ± 0.41, which corresponds with 126.5% of the baseline. In the third group, the baseline was decreased to the value of 5.35 ± 0.27 (88.0% of the baseline). The effect was not statistically significant. The administration of 28 at a dose of 50 mg/kg elevated the pain threshold to a value as high as 8.70 ± 0.41, which corresponds with 143.1% of the baseline.
as §6, §7

- % inhibition of control specific binding (NMDA): 5.0%
- inhibition at 100 µM [2]: 3.6%
SMILES: CC(=O)NC(C)C(=O)N1CCN(c2cccc(OC(F)(F)F)c2)CC1 (stereo not shown) [Compound 28, N-(1-oxo-1-(4-(3-(Trifluoromethoxy)phenyl)piperazin-1-yl)propan-2-yl)acetamide]
- percentage of fully kindled mice (mice [1]; 10 mg/kg i.p. every 24 h): 71%
- percentage of fully kindled mice (mice [1]; 20 mg/kg i.p. every 24 h): 73%
- percentage of fully kindled mice (mice [1]; 40 mg/kg i.p. every 24 h): 47%
- mean seizure severity score (mice [1]; after the first PTZ injection): 1.00 ± 0.00
- mean seizure severity score (mice [1]; after the last PTZ injection): 3.40 ± 0.45
- inhibition at 100 µM (hERG potassium channel): 12.9%
- ED50 (mice [3]): 27.5 mg/kg
- pain threshold after compound, % of the baseline (mice [4]; 25 mg/kg, early phase (3 h after OXPT)): 99.5%
- pain threshold after compound, % of the baseline (mice [4]; 50 mg/kg, early phase (3 h after OXPT)): 85.4%
- pain threshold after compound, % of the baseline (mice [4]; 50 mg/kg, late phase (7 days after OXPT)): 104.8%
- pain threshold after compound, % of the baseline (mice [4]; 75 mg/kg, early phase (3 h after OXPT)): 121.5%
- pain threshold after compound, % of the baseline (mice [4]; 75 mg/kg, late phase (7 days after OXPT)): 91.3%
- pain threshold after compound, % of the baseline (mice [5]; 12.5 mg/kg): 100.0%
- pain threshold (von Frey) after compound (mice [5]; 25 mg/kg): 7.69 ± 0.41
- pain threshold after compound, % of the baseline (mice [5]; 25 mg/kg): 126.5%
- pain threshold (von Frey) after compound (mice [5]; 50 mg/kg): 8.70 ± 0.41
- pain threshold after compound, % of the baseline (mice [5]; 50 mg/kg): 143.1%
